Results filed as inconclusive are left out.
test system: U2OS PGC1a acetylation AlphaLISA, overnight; experiment: activators raising PGC1a acetylation in cells, dose response, cell-based, cherry-picked samples, set 6 (AID 720513);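 note: cells made to overexpress flag tagged PGC1a plus GCN5 acetyltransferase by viral infection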

Q: How did the AC40 turn out when O=c1[nH]nc(SCCS(=O)(=O)c2ccc(F)cc2)n1-c1ccccc1 was run?
A: 15.2 µM

Q: Which AC40 does the source give for Cc1ccc(S(=O)(=O)Nc2ccc3c(c2)C(=O)N([C@@H](C)CO)C[C@@H](C)[C@H](CN(C)C(=O)Nc2cccc4ccccc24)OCCCC[C@H](C)O3)cc1 here?
A: 3.83 µM

Q: With CCOC(=O)C1=CC[C@@H](c2ccccc2)N(S(=O)(=O)c2ccc(C)cc2)[C@H]1c1cccc(OC)c1 as the compound, how does the AC40 read?
A: 9.62 µM

Q: How did the AC40 turn out when O=C(CS(=O)CC(=O)Nc1cccc2c1CCCC2)Nc1ccc(F)cc1 (centres undefined) was run?
A: 10.9 µM

Q: Which AC40 does the source give for C[C@@H]1CN([C@@H](C)CO)C(=O)c2c(c3ccccc3n2C)-c2ccccc2CO[C@@H]1CN(C)C(=O)Nc1ccccc1C(F)(F)F here?
A: 6.99 µM

Q: With NC(=O)Cn1cc(C(=O)c2cccs2)c2ccccc21 as the compound, how does the AC40 read?
A: 3.92 µM

Q: How did the AC40 turn out when CC(C)(C)c1ccc(C(=O)Nc2ccc(C(=O)NCc3cccnc3)cc2)cc1 was run?
A: < 0.16 µM

Q: For C[C@@H]1CN([C@@H](C)CO)C(=O)c2c(c3ccccc3n2C)-c2ccccc2CO[C@@H]1CN(C)C(=O)Oc1ccccc1, which AC40 is on record?
A: 7.26 µM

Q: With Nc1c(C(=O)Nc2ccccc2)c2nc3ccccc3nc2n1CCCN1CCOCC1 as the compound, how does the AC40 read?
A: 4.85 µM

Q: How did the AC40 turn out when COc1ccc(CC(=O)OCC(=O)NCc2ccco2)cc1 was run?
A: 9.28 µM

Q: O=C(NCc1ccco1)c1scc2c1OCCO2 was tested. Which AC40 did it give?
A: 12.3 µM

Q: How did the AC40 turn out when COc1ccc(-c2cc(-c3ccccc3O)[nH]n2)cc1OC was run?
A: 7.33 µM

Q: Which AC40 does the source give for N#Cc1cccc(C(c2nnnn2C2CCCC2)N2CCCCCC2)c1 (centres undefined) here?
A: 1.24 µM

Q: CC(C)(C)C(=O)Nc1sc2c(c1-c1nc3ccccc3[nH]1)CCCC2 was tested. Which AC40 did it give?
A: 18.4 µM

Q: c1ccc(C(c2nnnn2Cc2cccs2)N2CCN(C3CCCC3)CC2)cc1 (centres undefined) was tested. Which AC40 did it give?
A: 0.483 µM

Q: COc1ccc(S(=O)(=O)N(C)C[C@@H]2Oc3cc(C#CC4CC4)ccc3S(=O)(=O)N([C@H](C)CO)C[C@@H]2C)cc1 was tested. Which AC40 did it give?
A: 18 µM

Q: How did the AC40 turn out when Cc1cc2c(cc1S(=O)(=O)N1CCc3ccccc31)NC(=O)CO2 was run?
A: 2.18 µM

Q: CCOC(=O)C1=C[C@@H](C(C)C)N(S(=O)(=O)c2ccc(C)cc2)[C@H]1c1ccc(C(F)(F)F)cc1 was tested. Which AC40 did it give?
A: 2.64 µM

Q: How did the AC40 turn out when CCN(CC)CCOc1ccc(/C(=C(\Cl)c2ccccc2)c2ccccc2)cc1 was run?
A: 3.01 µM

Q: With Cc1ccc2oc(-c3ccc(NC(=O)c4cccnc4)cc3)nc2c1 as the compound, how does the AC40 read?
A: 2.03 µM

Q: How did the AC40 turn out when O=C(NCCCN1CCOCC1)c1ccccc1N1C(=O)[C@@H]2Cc3c([nH]c4ccccc34)C(c3ccccc3)N2C1=O (some centres undefined) was run?
A: 6.79 µM

Q: COc1ccc2c(c1)C(C)=CC(C)(C)N2S(=O)(=O)c1ccc(Br)cc1 was tested. Which AC40 did it give?
A: 2.69 µM

Q: With CC12CCC(C1)C(C)(C)C2NS(=O)(=O)c1ccc(F)cc1 (centres undefined) as the compound, how does the AC40 read?
A: 5.98 µM

Q: Which AC40 does the source give for CNC(=O)c1cccn(Cc2ccc(C(F)(F)F)cc2)c1=O here?
A: 17.5 µM

Q: How did the AC40 turn out when CCOC(=O)C1(N(CC)CC)Sc2cc(C)ccc2NC1=O (centres undefined) was run?
A: 3.28 µM

Q: Which AC40 does the source give for COc1cc(NC(=O)c2cccs2)c(OC)cc1NC(=O)CCC(=O)Nc1ccc2ncccc2c1 here?
A: 0.785 µM

Q: COc1cc(CN2CC3(CCN(S(=O)(=O)c4cccs4)CC3)c3c(n(C)c4cc(OC)ccc34)[C@H]2CO)cc(OC)c1 was tested. Which AC40 did it give?
A: 14.3 µM

Q: With COC(=O)C[C@H]1c2cc(C(F)(F)F)ccc2S(=O)(=O)N1Cc1ccc(OC)cc1 as the compound, how does the AC40 read?
A: 5.25 µM

Q: With CC(=O)Nc1ccc(Nc2ncnc3c2cnn3-c2ccc(C)cc2C)cc1 as the compound, how does the AC40 read?
A: 2.53 µM

Q: For Cc1ccc(NC(=O)CN(C)S(=O)(=O)c2cccs2)c(Br)c1, which AC40 is on record?
A: 14.7 µM

Q: For O=C(NCc1cccnc1)c1ccc(NC(=O)c2cccc([N+](=O)[O-])c2)cc1, which AC40 is on record?
A: < 0.16 µM

Q: O=C(NCCC(c1ccccc1)c1ccccc1)c1ccc(Br)o1 was tested. Which AC40 did it give?
A: 12.9 µM

Q: How did the AC40 turn out when CCOC(=O)C1=CC[C@@H](c2ccccc2)N(S(=O)(=O)c2ccc(C)cc2)[C@H]1c1ccc(CC)cc1 was run?
A: 0.785 µM

Q: For CC(C)(C)c1ccc(C(=O)c2c[nH]c(C(=O)NCc3cccnc3)c2)cc1, which AC40 is on record?
A: 1.23 µM

Q: CC(=O)n1cc([C@@H]2C=C(C(=O)Nc3ccccc3)O[C@H](OCc3ccc(CO)cc3)C2)c2ccccc21 was tested. Which AC40 did it give?
A: 4.65 µM

Q: For CCCOc1ccc(C(=O)Nc2cccnc2)cc1, which AC40 is on record?
A: 2.52 µM

Q: With O=C(Cc1ccccc1)Nc1ccc(NC(=O)c2ccco2)nc1 as the compound, how does the AC40 read?
A: 1.44 µM

Q: For CCOC(=O)c1oc2ccc(S(=O)(=O)N3CCC(C)CC3)cc2c1C, which AC40 is on record?
A: 17.1 µM

Q: For Cc1ccc(S(=O)(=O)N2C[C@@H]3N[C@H](C2)[C@@H]3c2ccc(-c3cccc(C)c3)cc2)cc1, which AC40 is on record?
A: 5.18 µM

Q: Which AC40 does the source give for CCOC(=O)C1=C[C@@H](C(C)(C)C)N(S(=O)(=O)c2ccc(C)cc2)[C@H]1c1cccc2ccccc12 here?
A: 0.543 µM

Q: Cc1ccc2[nH]c(=O)c(CN(Cc3ccc4c(c3)OCO4)Cc3nnnn3C3CCCC3)cc2c1 was tested. Which AC40 did it give?
A: 7.98 µM

Q: With CCCCC(=O)Nc1ccc(NC(=O)c2cccs2)cn1 as the compound, how does the AC40 read?
A: 18.9 µM

Q: With CC(=O)c1ccc(OCC(=O)OCC(=O)Nc2sccc2C(N)=O)cc1 as the compound, how does the AC40 read?
A: 6.46 µM

Q: For CC(C)(C)n1nnnc1CN(Cc1ccc(F)cc1)Cc1ccco1, which AC40 is on record?
A: 1.73 µM

Q: Which AC40 does the source give for COC(=O)[C@@]1(C)[C@H]2C(=O)N(Cc3ccccc3)C(=O)[C@H]2[C@H]2CN=C(SCC3CC3)N21 here?
A: 16.8 µM

Q: With Nc1c(C(=O)c2ccccc2)sc2nsc(SCCN3CCCC3)c12 as the compound, how does the AC40 read?
A: 9.72 µM

Q: Which AC40 does the source give for O=C(CN1CCC(n2nnc3cc(F)ccc32)CC1)Nc1ccc2c(c1)CCC2 here?
A: 2.71 µM

Q: COc1ccc(N(C(=O)c2snc(C(N)=O)c2N)C(C(=O)NC2CCCCC2)c2ccc(F)cc2)c(OC)c1 (centres undefined) was tested. Which AC40 did it give?
A: 3.26 µM

Q: For O=C(Nc1cccnc1)c1ccc(Oc2ccccc2)cc1, which AC40 is on record?
A: 2.19 µM

Reference: PubChem BioAssay AID720513 (Broad Institute, 2013)
